Where only a bound is given, the exact number is not on record here.

Common to all, as to format: in vivo
One test has as its system Chilo suppressalis. Put plainly: Example B1: Chilo suppressalis (striped rice stemborer), artificial diet, L2 larvae. The note with it: 144 h, application rate of 200 ppm, 6 days after infestation, read-out: control in at least one of the three categories (mortality, anti-feedant effect, or growth inhibition). The method, then: 24-well microtiter plates with artificial diet were treated with aqueous test solutions prepared from 10,000 ppm DMSO stock solutions by pipetting. After drying, the plates were infested with L2 larvae (6-8 per well). The samples were assessed for mortality, anti-feeding effect, and growth inhibition in comparison to untreated samples 6 days after infestation. Control of Chilo suppressalis by a test sample is given when at least one of the categories mortality, anti-feedant effect, and growth inhibition is higher than the untreated sample.

A further test relates to Diabrotica balteata. Description: Example B2: Diabrotica balteata (corn root worm), maize sprouts, L2 larvae. As to conditions: for percent control (mortality or growth inhibition) at 200 ppm: Diabrotica balteata, 96 h, application rate of 200 ppm, 4 days after infestation, read-out: control in at least one of the two categories (mortality or growth inhibition); for mortality at 50 ppm: Concentration 50 ppm, Diabrotica balteata (Example B32). The method, then:
Maize sprouts placed onto an agar layer in 24-well microtiter plates were treated with aqueous test solutions prepared from 10,000 ppm DMSO stock solutions by spraying. After drying, the plates were infested with L2 larvae (6 to 10 per well). The samples were assessed for mortality and growth inhibition in comparison to untreated samples 4 days after infestation.

The subject of another test is Plutella xylostella. Put plainly: Example B4: Plutella xylostella (diamond back moth), artificial diet, eggs. The note with it: for percent control (mortality or growth inhibition) at 200 ppm: Plutella xylostella, 192 h, application rate of 200 ppm, 8 days after infestation, read-out: control in at least one of the two categories (mortality or growth inhibition); for mortality at 50 ppm: Concentration 50 ppm, Plutella xylostella (Example B4). As for the experimental part:
24-well microtiter plates with artificial diet were treated with aqueous test solutions prepared from 10′000 ppm DMSO stock solutions by pipetting. After drying, Plutella eggs were pipetted through a plastic stencil onto a gel blotting paper and the plate was closed with it. The samples were assessed for mortality and growth inhibition in comparison to untreated samples 8 days after infestation.

The next test deals with Spodoptera littoralis. Put plainly: Example B5: Spodoptera littoralis (Egyptian cotton leaf worm), cotton leaf discs, L1 larvae. As to conditions: foliar, 72 h, application rate of 200 ppm, 3 days after infestation, read-out: control in at least one of the three categories (mortality, anti-feedant effect, or growth inhibition). As for the experimental part:
Cotton leaf discs were placed onto agar in 24-well microtiter plates and sprayed with aqueous test solutions prepared from 10,000 ppm DMSO stock solutions. After drying the leaf discs were infested with five L1 larvae. The samples were assessed for mortality, anti-feeding effect, and growth inhibition in comparison to untreated samples 3 days after infestation. Control of Spodoptera littoralis by a test sample is given when at least one of the categories mortality, anti-feedant effect, and growth inhibition is higher than the untreated sample.

For the compound `CC(NC(=O)c1cc(Cl)nc(C2(C#N)CC2)c1)c1nccnc1-c1cnccn1` (stereo not drawn) [Compound P27, 2-chloro-6-(1-cyanocyclopropyl)-N-[1-(3-pyrazin-2-ylpyrazin-2-yl)ethyl]pyridine-4-carboxamide], the percent control (mortality, anti-feedant effect or growth inhibition) at 200 ppm in the test with Chilo suppressalis and in the test on Spodoptera littoralis was at least 80% each time. In addition, the percent control (mortality or growth inhibition) at 200 ppm with Diabrotica balteata and in the test on Plutella xylostella was at least 80% throughout.
Regarding `CC(NC(=O)c1cc(C(F)(F)F)cc(S(C)(=O)=O)c1)c1nccnc1-c1cnc(C#N)cn1` (stereo not drawn) [Compound P39, N-[1-[3-(5-cyanopyrazin-2-yl)pyrazin-2-yl]ethyl]-3-methylsulfonyl-5-(trifluoromethyl)benzamide], the percent control (mortality, anti-feedant effect or growth inhibition) at 200 ppm in the test on Chilo suppressalis and with Spodoptera littoralis was at least 80% throughout. The percent control (mortality or growth inhibition) at 200 ppm in the test on Plutella xylostella was at least 80%.
As to `CC(NC(=O)c1cc(Cl)cc(Cl)c1)c1nccnc1-c1cnccn1` (stereo not drawn) [Compound P8, 3,5-dichloro-N-[1-(3-pyrazin-2-ylpyrazin-2-yl)ethyl]benzamide], the percent control (mortality, anti-feedant effect or growth inhibition) at 200 ppm in the test on Chilo suppressalis and in the test with Spodoptera littoralis was at least 80% throughout. Further, the percent control (mortality or growth inhibition) at 200 ppm in the test on Diabrotica balteata and in the test on Plutella xylostella was at least 80% in each case.
With `CC(NC(=O)c1cc(C(F)F)cc(C(F)(F)F)c1)c1nccnc1-c1ncccn1` (stereo not drawn) [P22 of WO 2020/070049, reference compound], the mortality at 50 ppm in the test on Diabrotica balteata stood at 80%.
In the case of `CC(NC(=O)c1cc(C(F)(F)F)cc(C(F)(F)F)c1)c1nccnc1-c1cnccn1` (stereo not drawn) [Compound P1, N-[1-(3-pyrazin-2-ylpyrazin-2-yl)ethyl]-3,5-bis (trifluoromethyl)benzamide], the percent control (mortality, anti-feedant effect or growth inhibition) at 200 ppm in the test with Chilo suppressalis and in the test on Spodoptera littoralis was at least 80% throughout. For the same compound, the percent control (mortality or growth inhibition) at 200 ppm in the test with Diabrotica balteata and in the test on Plutella xylostella was at least 80% in each case.
Regarding `CC(NC(=O)c1cc(Cl)cc(S(=O)(=O)C(F)(F)F)c1)c1nccnc1-c1cnccn1` (stereo not drawn) [Compound P33, 3-chloro-N-[1-(3-pyrazin-2-ylpyrazin-2-yl)ethyl]-5-(trifluoromethylsulfonyl)benzamide], in the test on Chilo suppressalis, the percent control (mortality, anti-feedant effect or growth inhibition) at 200 ppm is at least 80%. Moreover, the percent control (mortality or growth inhibition) at 200 ppm in the test with Plutella xylostella is at least 80%.
Consider `CC(NC(=O)c1cc(C2CC2)cc(C(F)(F)F)c1)c1nccnc1-c1cnccn1` (stereo not drawn) [Compound P19, 3-cyclopropyl-N-[1-(3-pyrazin-2-ylpyrazin-2-yl)ethyl]-5-(trifluoromethyl)benzamide], for which, in the test with Chilo suppressalis, the percent control (mortality, anti-feedant effect or growth inhibition) at 200 ppm is at least 80%. The percent control (mortality or growth inhibition) at 200 ppm in the test with Diabrotica balteata was at least 80%. Further, in the test on Plutella xylostella, the mortality at 50 ppm turned out to be 100% and the percent control (mortality or growth inhibition) at 200 ppm was at least 80%.
As for `CC(c1nccnc1-c1cnccn1)N(C)C(=O)c1cc(Cl)cc(C(F)(F)F)c1` (stereo not drawn) [Compound P30, 3-chloro-N-methyl-N-[1-(3-pyrazin-2-ylpyrazin-2-yl)ethyl]-5-(trifluoromethyl)benzamide], in the test on Chilo suppressalis, the percent control (mortality, anti-feedant effect or growth inhibition) at 200 ppm was at least 80%. Moreover, the percent control (mortality or growth inhibition) at 200 ppm with Diabrotica balteata and with Plutella xylostella was at least 80% throughout.
Take `CC(NC(=O)c1cc(Cl)cc(C(F)(F)F)c1)c1nccnc1-c1cnccn1` (stereo not drawn) [Compound P6, 3-chloro-N-[1-(3-pyrazin-2-ylpyrazin-2-yl)ethyl]-5-(trifluoromethyl)benzamide]: the percent control (mortality, anti-feedant effect or growth inhibition) at 200 ppm in the test on Chilo suppressalis and with Spodoptera littoralis was at least 80% throughout. In addition, the mortality at 50 ppm with Plutella xylostella amounted to 100%. The percent control (mortality or growth inhibition) at 200 ppm in the test with Plutella xylostella is at least 80%.
With `C[C@@H](c1nccnc1-c1cnccn1)N(C)C(=O)c1cc(I)cc(I)c1` [Compound E10, 3,5-diiodo-N-methyl-N-[(1S)-1-(3-pyrazin-2-ylpyrazin-2-yl)ethyl]benzamide], the percent control (mortality or growth inhibition) at 200 ppm with Diabrotica balteata is at least 80%. The percent control (mortality, anti-feedant effect or growth inhibition) at 200 ppm with Spodoptera littoralis was at least 80%.
Turning to `C[C@@H](c1nccnc1-c1cnccn1)N(C)C(=O)c1cc(I)cc(C(F)(F)F)c1` [Compound E9, 3-iodo-N-methyl-N-[(1S)-1-(3-pyrazin-2-ylpyrazin-2-yl)ethyl]-5-(trifluoromethyl)benzamide], the percent control (mortality or growth inhibition) at 200 ppm in the test on Diabrotica balteata is at least 80%. Further, in the test with Spodoptera littoralis, the percent control (mortality, anti-feedant effect or growth inhibition) at 200 ppm was at least 80%.
`CC(NC(=O)c1cc(Br)cc(Br)c1)c1nccnc1-c1cnc(Cl)cn1` (stereo not drawn) [Compound P36, 3,5-dibromo-N-[1-[3-(5-chloropyrazin-2-yl)pyrazin-2-yl]ethyl]benzamide]: the percent control (mortality or growth inhibition) at 200 ppm in the test with Diabrotica balteata and in the test on Plutella xylostella was at least 80% each time. The percent control (mortality, anti-feedant effect or growth inhibition) at 200 ppm in the test on Spodoptera littoralis was at least 80%.
Consider `C[C@@H](c1nccnc1-c1cnccn1)N(C)C(=O)c1cc(C(F)F)cc(C(F)(F)F)c1` [Compound E13, 3-(difluoromethyl)-N-methyl-N-[(1S)-1-(3-pyrazin-2-ylpyrazin-2-yl)ethyl]-5-(trifluoromethyl)benzamide], for which the percent control (mortality or growth inhibition) at 200 ppm in the test on Diabrotica balteata was at least 80%. In the test on Spodoptera littoralis, the percent control (mortality, anti-feedant effect or growth inhibition) at 200 ppm was at least 80%.
As to `CC(NC(=O)c1cc(C(F)(F)F)cc(C2(C#N)CC2)c1)c1nccnc1-c1ncccn1` (stereo not drawn) [P25 of WO 2020/201398, reference compound], the mortality at 50 ppm in the test on Diabrotica balteata amounted to 50%.
Turning to `CC(NC(=O)c1cc(Cl)cc(OC(F)(F)F)c1)c1nccnc1-c1cnccn1` (stereo not drawn) [Compound P9, 3-chloro-N-[1-(3-pyrazin-2-ylpyrazin-2-yl)ethyl]-5-(trifluoromethoxy)benzamide], the percent control (mortality, anti-feedant effect or growth inhibition) at 200 ppm with Chilo suppressalis is at least 80%. Besides, the percent control (mortality or growth inhibition) at 200 ppm in the test with Diabrotica balteata and with Plutella xylostella was at least 80% each time.
Turning to `CC(NC(=O)c1cc(Cl)cc(SC(F)(F)F)c1)c1nccnc1-c1cnccn1` (stereo not drawn) [Compound P28, 3-chloro-N-[1-(3-pyrazin-2-ylpyrazin-2-yl)ethyl]-5-(trifluoromethylsulfanyl)benzamide], the percent control (mortality or growth inhibition) at 200 ppm in the test on Diabrotica balteata and with Plutella xylostella was at least 80% throughout. Besides, the percent control (mortality, anti-feedant effect or growth inhibition) at 200 ppm in the test on Spodoptera littoralis is at least 80%.
On to `CC(NC(=O)c1cc(Cl)cc(C(F)(F)F)c1)c1nccnc1-c1ccccn1` (stereo not drawn) [Example 1 of WO 2021/068179, reference compound], for which, in the test with Plutella xylostella, the mortality at 50 ppm amounted to 0%.
On to `CC(NC(=O)c1cc(C(F)(F)F)cc(S(=O)(=O)C(F)(F)F)c1)c1nccnc1-c1cnccn1` (stereo not drawn) [Compound P22, N-[1-(3-pyrazin-2-ylpyrazin-2-yl)ethyl]-3-(trifluoromethyl)-5-(trifluoromethylsulfonyl)benzamide], for which the percent control (mortality, anti-feedant effect or growth inhibition) at 200 ppm in the test with Chilo suppressalis is at least 80%. The percent control (mortality or growth inhibition) at 200 ppm with Plutella xylostella was at least 80%.
With `C[C@H](NC(=O)c1cc(Br)cc(Br)c1)c1nccnc1-c1cnccn1` [Compound E6, 3,5-dibromo-N-[(1S)-1-(3-pyrazin-2-ylpyrazin-2-yl)ethyl]benzamide], the percent control (mortality or growth inhibition) at 200 ppm in the test on Diabrotica balteata and in the test with Plutella xylostella was at least 80% throughout. The percent control (mortality, anti-feedant effect or growth inhibition) at 200 ppm in the test on Spodoptera littoralis is at least 80%.
`CC(NC(=O)c1cc(Br)cc(Br)c1)c1nccnc1-c1cnccn1` (stereo not drawn) [Compound P15, 3,5-dibromo-N-[1-(3-pyrazin-2-ylpyrazin-2-yl)ethyl]benzamide]: the percent control (mortality or growth inhibition) at 200 ppm in the test on Diabrotica balteata and with Plutella xylostella was at least 80% in each case.
For the compound `CC(NC(=O)c1cc(C2CC2)cc(C(F)(F)F)c1)c1nccnc1-c1ccccn1` (stereo not drawn) [P33 of WO 2020/201398, reference compound], the mortality at 50 ppm with Plutella xylostella was 50%.
On to `CC(NC(=O)c1cc(I)cc(C(F)(F)F)c1)c1nccnc1-c1cnccn1` (stereo not drawn) [Compound P23, 3-iodo-N-[1-(3-pyrazin-2-ylpyrazin-2-yl)ethyl]-5-(trifluoromethyl)benzamide], for which the percent control (mortality or growth inhibition) at 200 ppm in the test with Diabrotica balteata and in the test on Plutella xylostella was at least 80% each time. Also, the percent control (mortality, anti-feedant effect or growth inhibition) at 200 ppm with Spodoptera littoralis was at least 80%.
In the case of `C[C@H](NC(=O)c1cc(I)cc(I)c1)c1nccnc1-c1cnccn1` [Compound E5, 3,5-diiodo-N-[(1S)-1-(3-pyrazin-2-ylpyrazin-2-yl)ethyl]benzamide], the percent control (mortality or growth inhibition) at 200 ppm in the test with Diabrotica balteata and in the test on Plutella xylostella was at least 80% throughout. In addition, the percent control (mortality, anti-feedant effect or growth inhibition) at 200 ppm with Spodoptera littoralis is at least 80%.

Usually mortality stands for the percentage killed. The low end stands for a weak lethal effect, the high end for a strong lethal effect.
